# Results published in patent US20050064412A1, “Method of evaluating degree of canceration of mammal-origin specimen” (priority 2001, published 2005).
# How the values were obtained:
# Type in all cases: cell-based, human
# 3OST2 gene [1] = assay: Methylation-specific PCR of 3OST2 gene after culture with methylation inhibitor (MCF-7); details: breast cancer cell line MCF-7 cultured in the presence of 6 μM 5Aza-dC, FIG. 2
# Protocol: (§1) Two kinds of human-derived breast cancer cell lines (MCF-7, MDA-MB-468) and human-derived normal mammary gland epithelial cell (HMEC) were seeded at a density of 3 to 6×10^5 cells/10 cm plate, and cultured using RPMI or DMEM or an exclusively used medium. On the first day after seeding, 5-aza-2′-deoxytidine (manufactured by sigma) (hereinafter, referred to as 5Aza-dC) which is a methylation inhibitor was added to a medium to give the concentration of 0.5 to 6 μM. Twenty four hours after addition of 5Aza-Dc, the medium was exchanged with the aforementioned medium to which no 5Aza-dC was added, and culturing was continued. Then, on the third day after seeding, 5Aza-dC was added to the medium similarly. On the fourth day after seeding, cells were recovered, and a genomic DNA was extracted and recovered from the recovered cells according to the same manner as that of Example 1. Further, according to the same manner as that of Example 2, a RNA was extracted and recovered.
# (§2) The extracted and recovered genomic DNA was treated with sodium bisulfite according to the same manner as that of Example 1. The resulting DNA was used as a template and PCR was performed using unmethylation-specific primers U2 and U3, or methylation-specific primers M3 and M4 shown below. […]
# 3OST2 gene [2] = assay: RT-PCR of 3OST2 gene mRNA after culture with methylation inhibitor (MDA-MB-468); details: FIG. 3
# Protocol: The thus obtained RNA was treated with DNaseI (Life Technologies), and this was used as a template and Superscript II (Life Technologies) was used to synthesize a cDNA according to a protocol attached to the enzyme. By performing PCR using the synthesized cDNA as a template and using 3OST2 S and 3OST2 A shown below as a primer pair, a DNA derived from a mRNA of 3OST2 gene was amplified. Thereupon, as a control by performing PCR using the aforementioned cDNA as a template and using GAPDH S and GAPDH A solution below as a primer pair, a DNA derived from a mRNA of a GAPDH gene was amplified.
# A reaction solution PCR was used which was obtained by mixing 20 ng of a cDNA as a template, each 0.25 μl of two kinds of 25 pmol/μl aforementioned primer solution, 0.5 μl of 10 mM dNTP, 2.5 μl of 10× buffer (100 mM Tris-HCl pH 8.3, 500 mM KCl, 20 mM MgCl2) and 0.15 μl of a 5 U/μl thermostable DNA polymerase, and adding sterilized ultrapure water thereto to an amount of solution of 25 μl. When a DNA derived from mRNA of 3OST2 gene was amplified, PCR was performed at the conditions under which the reaction solution was retained at 94° C. for 10 minutes, 28 cycles of temperature maintenance were performed, each cycle was 30 seconds at 94° C., 30 seconds at 45° C. and 60 seconds at 72° C., and a temperature was maintained at 72° C. for 10 minutes. […]
# 3OST2 gene [3] = assay: Methylation-specific PCR of 3OST2 gene after culture with methylation inhibitor (MDA-MB-468); details: breast cancer cell line MDA-MB-468 cultured in the presence of 0.5 μM 5Aza-dC, FIG. 2
# Protocol: as §1, §2
compound,measurement,setting,value
"Nc1ncn([C@H]2C[C@H](O)[C@@H](CO)O2)c(=O)n1 [5Aza-dC, 5-aza-2′-deoxytidine]","methylation status of cytosines 1260, 1271, 1281, 1410, 1418, 1423 and 1425 of SEQ ID NO: 1 (3OST2 gene)",3OST2 gene [1],not methylated in genomic DNAs of approximately half of cells
same,DNA (161 bp) derived from a mRNA of 3OST2 gene (expression),3OST2 gene [2]; MAD-MB-468 cultured in the presence of 0.5 μM 5Aza-dC,detected
same,DNA (161 bp) derived from a mRNA of 3OST2 gene (expression),3OST2 gene [2]; MAD-MB-468 cultured in the presence of 1 μM 5Aza-dC,detected
same,"methylation status of cytosines 1260, 1271, 1281, 1410, 1418, 1423 and 1425 of SEQ ID NO: 1 (3OST2 gene)",3OST2 gene [3],not methylated in almost genomic DNAs
